Some test systems named below: A549 NSCLC; CCRF-CEM leukemia; COLO 205 colon; EKVX NSCLC; HCT-15 colon; MOLT-4 leukemia; NCI-H226 lung; NCI-H23 lung; OVCAR-3 ovarian; SF-539 CNS; UO-31 renal.
Holding throughout (assay): NCI anticancer screen, dose series, 48 h

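Values below derive from 48-hour exposures of cells grown in 96-well plates, with endpoints linearly interpolated between the two concentrations bracketing the appropriate inhibition level. At the TGI there is no net growth.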 Where a SMILES comes first, the peptide text is derived from it. The star is where a group is joined. Boc = CC(C)(C)OC(=O)* Bounds are passed on as bounds.

Consider `CC(=O)C1=C(C)O[C@@H]2O[C@H](COCc3ccccc3)[C@@H](OCc3ccccc3)[C@H](O)[C@@H]2S1`, for which the TGI is > 100 µM in the assay on A549 NSCLC; 16.8 µM with CCRF-CEM leukemia; 54.5 µM in the assay on COLO 205 colon; 82.8 µM with EKVX NSCLC; 71.6 µM in the assay on HCT-15 colon; 33.3 µM in the assay with MOLT-4 leukemia. The TGI with NCI-H226 lung is 48.6 µM; with NCI-H23 lung it was 59.9 µM; with OVCAR-3 ovarian, 29.4 µM; in the assay with SF-539 CNS, 42.2 µM; in the assay with UO-31 renal it was 37.7 µM.
On to `CCOP(=O)(CCCC(O)CNc1nc(N)nc(Cl)c1N=Nc1ccc(Cl)cc1)OCC` (stereo not given), for which the TGI was 23.9 µM in the assay on A549 NSCLC; 9.92 µM with CCRF-CEM leukemia; 20.4 µM in the assay on COLO 205 colon; 15.5 µM in the assay on EKVX NSCLC; 20.2 µM in the assay with HCT-15 colon; 11.8 µM with MOLT-4 leukemia. For the same compound, the TGI in the assay on NCI-H226 lung is 22.1 µM; in the assay with NCI-H23 lung it was 28 µM; with OVCAR-3 ovarian it was 18.4 µM; in the assay on SF-539 CNS, 23 µM; with UO-31 renal, 16.1 µM.
`COC(=O)C(Cc1ccccc1)NC(=O)C(CS)NC(=O)OC(C)(C)C` (stereo not drawn) (Boc-Cys-Phe-OMe; configuration not given here): the TGI with A549 NSCLC was > 100 µM; with CCRF-CEM leukemia it was 89.3 µM; in the assay on COLO 205 colon it was > 100 µM; in the assay on EKVX NSCLC, > 100 µM; with HCT-15 colon, > 100 µM; with MOLT-4 leukemia, 41.3 µM. Moreover, the TGI with NCI-H226 lung, in the assay on NCI-H23 lung, with OVCAR-3 ovarian, in the assay with SF-539 CNS and with UO-31 renal was > 100 µM throughout.
Regarding `O=C1C=C(Nc2ccccc2C(=O)CC(=O)C(=O)Nc2ccc(Cl)cc2)c2ccccc2C1=O`, the TGI was 32.4 µM in the assay with A549 NSCLC; 33.1 µM with CCRF-CEM leukemia; 34.5 µM in the assay on COLO 205 colon; 99 µM in the assay on EKVX NSCLC; 24.8 µM in the assay with HCT-15 colon; > 38.5 µM in the assay with MOLT-4 leukemia. The TGI is > 56.6 µM with NCI-H226 lung; 29.6 µM in the assay on NCI-H23 lung; 9.29 µM in the assay with OVCAR-3 ovarian; 50.2 µM in the assay with SF-539 CNS; 65.6 µM in the assay with UO-31 renal.
As to `COC(=O)[C@H](CC(C)C)NC(=O)[C@H](Cc1ccccc1)N1CC2C=CC1C2` (stereo not given in full), the TGI with A549 NSCLC, in the assay with CCRF-CEM leukemia, with COLO 205 colon, with EKVX NSCLC, in the assay with HCT-15 colon and in the assay with MOLT-4 leukemia was > 100 µM each time. The TGI with NCI-H226 lung, with NCI-H23 lung, in the assay with OVCAR-3 ovarian, in the assay with SF-539 CNS and in the assay on UO-31 renal was > 100 µM throughout.
In the case of `O=C1c2ccccc2C(=O)N1n1c(Cc2ccc(Cl)cc2)n[nH]c1=O`, the TGI with A549 NSCLC, with CCRF-CEM leukemia, with COLO 205 colon, with EKVX NSCLC, in the assay on HCT-15 colon and with MOLT-4 leukemia was > 100 µM throughout. The TGI in the assay on NCI-H226 lung, in the assay on NCI-H23 lung, in the assay on OVCAR-3 ovarian, in the assay on SF-539 CNS and in the assay on UO-31 renal was > 100 µM each time.
In the case of `CNC(=O)N(CCC#N)CCN(C(=O)NC)c1ccccc1`, the TGI with A549 NSCLC, in the assay on CCRF-CEM leukemia, in the assay on COLO 205 colon, with EKVX NSCLC, in the assay on HCT-15 colon and in the assay with MOLT-4 leukemia was > 100 µM each time. Moreover, the TGI in the assay with NCI-H226 lung, in the assay with NCI-H23 lung, in the assay with OVCAR-3 ovarian, with SF-539 CNS and with UO-31 renal was > 100 µM in each case.
With `CC(C)(C)N/N=C(\C(=O)Nc1cccc(Cl)c1)C1C(=O)Nc2ccccc2S1=O` (stereo not given), the TGI in the assay on A549 NSCLC, in the assay with CCRF-CEM leukemia, in the assay with COLO 205 colon, with EKVX NSCLC, in the assay with HCT-15 colon and with MOLT-4 leukemia was > 100 µM each time. The TGI in the assay with NCI-H226 lung, with NCI-H23 lung, in the assay on OVCAR-3 ovarian, with SF-539 CNS and with UO-31 renal was > 100 µM in each case.
As for `C/C=C1/CN2CCC34c5ccccc5N(C)C23C2CC1C4(C(=O)OC)C(OC(C)=O)O2` (stereo not given), the TGI in the assay with A549 NSCLC, in the assay on CCRF-CEM leukemia, with COLO 205 colon, in the assay with EKVX NSCLC, with HCT-15 colon and in the assay with MOLT-4 leukemia was > 100 µM each time. The TGI in the assay on NCI-H226 lung, with NCI-H23 lung, in the assay with OVCAR-3 ovarian, with SF-539 CNS and with UO-31 renal was > 100 µM throughout.
For the compound `COc1ccccc1NC(=S)N=Nc1c(O)[nH]c2ccccc12`, the TGI in the assay on A549 NSCLC, in the assay with CCRF-CEM leukemia, in the assay on COLO 205 colon, with EKVX NSCLC, with HCT-15 colon and in the assay on MOLT-4 leukemia was > 100 µM throughout. For the same compound, the TGI in the assay with NCI-H226 lung, with NCI-H23 lung, in the assay on OVCAR-3 ovarian, in the assay with SF-539 CNS and in the assay on UO-31 renal was > 100 µM in each case.

These data come from PubChem BioAssay (NCI).
